Laboratory results taken from patent US5464607A, “5,5'-/(1,3-propanediyl) bis-/imino(2-oxo-2,1-ethanediyl)acetylimino/bis(2,4,6-triiodo-1,3-benzen edicarboxylamides), and contrast media containing them” (Dibra S.p.A., priority 1991, dated 1995).

Key:
[1] = Osmolality (steampressure osmometer Wescor mod 5500); assay type: physicochemical
Excerpt: ^a) Calculated with a steampressure osmometer Wescor(R) mod 5500,
calibrated with NaCl aqueous solutions.

[2] = physchem; settings: water
[3] = water
[4] = Viscosity (ROTOVISCO RV100CV100-LV100, sensor ZB15); assay type: physicochemical
Excerpt: ^b) Calculated with ROTOVISCO^(R) RV100CV100-LV100, sensor ZB15.

Osmolality ([1]; 200 mgI/ml): 0,17 osmol/kg H2 O | Osmolality ([1]; 300 mgI/ml): 0,25 osmol/kg H2 O | Osmolality ([1]; 400 mgI/ml): 0,72 osmol/kg H2 O | solubility [2]: > 1000 mg/mL | Solubility in H2 O at 30° C. [3]: > 100 g in 100 ml | Viscosity at 20° C. ([4]; 200 mgI/ml): 5,7 mPa·s | Viscosity at 20° C. ([4]; 300 mgI/ml): 24 mPa·s | Viscosity at 20° C. ([4]; 400 mgI/ml): 112 mPa·s | Viscosity at 37° C. ([4]; 200 mgI/ml): 3,4 mPa·s | Viscosity at 37° C. ([4]; 300 mgI/ml): 12 mPa·s | Viscosity at 37° C. ([4]; 400 mgI/ml): 41 mPa·s
Structure (SMILES): CC(=O)N(CC(=O)NCC(O)CNC(=O)CN(C(C)=O)c1c(I)c(C(=O)NCC(O)CO)c(I)c(C(=O)NCC(O)CO)c1I)c1c(I)c(C(=O)NCC(O)CO)c(I)c(C(=O)NCC(O)CO)c1I (centres unmarked) [5,5'-[(2-hydroxy-1,3-propanediyl)bis [imino(2-oxo-2,1-ethanediyl)acetylimino]]bis[N,N'-bis(2,3-dihydroxypropyl)-2,4,6-triiodo-1,3-benzenedicarboxyamide]]
